Our source for the IC50 values is patent publication US11780840B2 (Incyte Corporation, priority 2020, dated 2023).

The target of test [1] is T1, pseudo-kinase domain (JH2, amino-acids 536-812 with 3 surface mutations W659A, W777A, F794H) of human V617F mutant JAK2 (Homo sapiens, UniProt O60674, F794H/V617F/W659A/W777A).
T1 construct: pseudo-kinase domain (JH2, amino-acids 536-812 with 3 surface mutations W659A, W777A, F794H); His (C); Avi (biotinylated) (C); purchased BPS Bioscience 79498; host or cells: baculovirus expression system
T1 sequence (O60674 536-812 V617F/W659A/W777A/F794H): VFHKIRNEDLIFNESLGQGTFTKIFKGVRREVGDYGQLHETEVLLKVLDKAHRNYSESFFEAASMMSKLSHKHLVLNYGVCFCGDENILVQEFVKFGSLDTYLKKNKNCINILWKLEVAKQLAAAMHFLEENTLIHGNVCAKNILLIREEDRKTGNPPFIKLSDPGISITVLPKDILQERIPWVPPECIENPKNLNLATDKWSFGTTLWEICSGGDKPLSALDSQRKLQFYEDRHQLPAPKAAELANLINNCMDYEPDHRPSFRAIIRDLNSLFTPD
The test is described as follows: JAK2 LanthaScreen JH2-V617F Binding Assay. The note with it: JAK2 JH2-V617F (0.26 nM), 50 nM Fluorescent JAK2-JH2 Tracer, 1 hour at 25° C.; read-out: JH2 BIND V617F. Put shortly:
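Serially diluted compounds are mixed with 0.26 nM protein, 50 nM fluorescent JAK2-JH2 tracer and 0.25 nM terbium-labelled streptavidin, then incubated 1 h at 25° C. LanthaScreen signal is read, and IC50 is fitted.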

Test [2] has as its target T2, pseudo-kinase domain (JH2, amino-acids 536-812 with 3 surface mutations W659A, W777A, F794H) of human Wild Type JAK2 (Homo sapiens, UniProt O60674, F794H/W659A/W777A).
T2 construct: pseudo-kinase domain (JH2, amino-acids 536-812 with 3 surface mutations W659A, W777A, F794H); His (C); Avi (biotinylated) (C); purchased BPS Bioscience 79463; host or cells: baculovirus expression system
The test is described as follows: JAK2 LanthaScreen JH2-WT Binding Assay. The settings on record: JAK2 JH2-WT (0.145 nM), 50 nM Fluorescent JAK2-JH2 Tracer, 1 hour at 25° C.; read-out: JH2 BIND WT. Put shortly:
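Biotinylated His-Avi-tagged JAK2 JH2 (0.145 nM), baculovirus-expressed, incubated with compounds, 50 nM fluorescent JH2 tracer and 0.25 nM streptavidin-Tb, 1 h at 25° C in pH 7.5 Tris buffer with MgCl2 and DTT. Non-specific binding defined with 2 mM ATP. TR-FRET read; IC50 from four-parameter fit.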
A general note: Time-resolved FRET reads energy transfer from a long-lived donor to a nearby acceptor.

In test [3] the target is T3, catalytic domain (JH1, amino acids 826-1132) of human JAK2 (Homo sapiens, UniProt O60674).
T3 construct: catalytic domain (JH1, amino acids 826-1132) of human JAK2; FLAG (N); purchased Carna Biosciences 08-445-20N; host or cells: baculovirus expression system
T3 sequence (O60674 826-1132): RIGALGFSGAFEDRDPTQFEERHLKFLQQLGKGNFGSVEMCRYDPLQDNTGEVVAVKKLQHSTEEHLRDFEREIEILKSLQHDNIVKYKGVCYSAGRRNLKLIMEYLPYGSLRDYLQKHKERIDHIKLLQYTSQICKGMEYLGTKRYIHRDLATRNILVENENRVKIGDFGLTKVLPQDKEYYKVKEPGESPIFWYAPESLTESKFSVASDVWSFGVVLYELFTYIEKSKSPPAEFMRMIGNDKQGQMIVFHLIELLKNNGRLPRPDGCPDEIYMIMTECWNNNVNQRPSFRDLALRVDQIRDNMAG
The test is described as follows: JAK2 LanthaScreen JH1 Binding Assay. The settings on record: JAK2 JH1 (1.5 nM), 50 nM fluorescent JAK2-JH1 tracer, 2 hours at 25° C.; read-out: JH1 BIND. Put shortly:
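TR-FRET tracer-displacement format: compound IC50 from four-parameter curves after 2 h at 25° C. Reaction held 1.5 nM biotinylated, FLAG-tagged JH1 (aa 826-1132), 50 nM tracer, 0.5 nM Streptavidin-Tb, pH 7.5 Tris buffer; 2 mM ATP set nonspecific background.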

T2 sequence (O60674 536-812 W659A/W777A/F794H): as the sequence (O60674 536-812 V617F/W659A/W777A/F794H) above, with F82V counted along it

`CC(C)n1c(=O)n(C)c2cnc3[nH]c(-c4cnn(CC(C)(C)O)c4)c(-c4cnc(N5CCOCC5)s4)c3c21` [Example 76, 7-(1-(2-Hydroxy-2-methylpropyl)-1H-pyrazol-4-yl)-1-isopropyl-3-methyl-8-(2-morpholinothiazol-5-yl)-3,6-dihydroimidazo[4,5-d]pyrrolo[2,3-b]pyridin-2(1H)-one]: the IC50 is 10 to 100 nM in test [1], 10 to 100 nM in test [2] and above 1000 nM in test [3].

Turning to `CC(C)n1c(=O)n(C)c2cnc3[nH]c(-c4cnn(CC(C)(C)O)c4)c(-c4ccc5cnccc5c4)c3c21` [Example 77, 7-(1-(2-Hydroxy-2-methylpropyl)-1H-pyrazol-4-yl)-1-isopropyl-8-(isoquinolin-6-yl)-3-methyl-3,6-dihydroimidazo[4,5-d]pyrrolo[2,3-b]pyridin-2(1H)-one], the IC50 was 10 to 100 nM in test [1], 10 to 100 nM in test [2] and above 1000 nM in test [3].

On to `CC(C)n1c(=O)n(C)c2cnc3[nH]c(-c4cnn(CC(C)(C)O)c4)c(-c4ccc5ncsc5c4)c3c21` [Example 78, 8-(Benzo[d]thiazol-6-yl)-7-(1-(2-hydroxy-2-methylpropyl)-1H-pyrazol-4-yl)-1-isopropyl-3-methyl-3,6-dihydroimidazo[4,5-d]pyrrolo[2,3-b]pyridin-2(1H)-one], for which the IC50 is 10 to 100 nM in test [1], 10 to 100 nM in test [2] and above 1000 nM in test [3].

With `CC(C)n1c(=O)n(C)c2cnc3[nH]c(-c4cnn(CC(C)(C)O)c4)c(-c4ccc5c(c4)CCCO5)c3c21` [Example 79, 8-(Chroman-6-yl)-7-(1-(2-hydroxy-2-methylpropyl)-1H-pyrazol-4-yl)-1-isopropyl-3-methyl-3,6-dihydroimidazo[4,5-d]pyrrolo[2,3-b]pyridin-2(1H)-one], the IC50 in test [1] is 10 to 100 nM; in test [2] it was at most 10 nM; in test [3], 100 to 500 nM.

In the case of `CC(C)n1c(=O)n(C)c2cnc3[nH]c(-c4cnn(CC(C)(C)O)c4)c(-c4cc5cnc(N6CCNCC6)cc5s4)c3c21` [Example 80, 7-(1-(2-Hydroxy-2-methylpropyl)-1H-pyrazol-4-yl)-1-isopropyl-3-methyl-8-(6-(piperazin-1-yl)thieno[3,2-c]pyridin-2-yl)-3,6-dihydroimidazo[4,5-d]pyrrolo[2,3-b]pyridin-2(1H)-one], the IC50 in test [1] is at most 10 nM; in test [2] it was at most 10 nM; in test [3], 100 to 500 nM.

Take `CC(=O)N1CCN(c2cc3sc(-c4c(-c5cnn(CC(C)(C)O)c5)[nH]c5ncc6c(c45)n(C(C)C)c(=O)n6C)cc3cn2)CC1` [Example 81, 8-(6-(4-Acetylpiperazin-1-yl)thieno[3,2-c]pyridin-2-yl)-7-(1-(2-hydroxy-2-methylpropyl)-1H-pyrazol-4-yl)-1-isopropyl-3-methyl-3,6-dihydroimidazo[4,5-d]pyrrolo[2,3-b]pyridin-2(1H)-one]: the IC50 in test [1] was 10 to 100 nM; in test [2] it was at most 10 nM; in test [3], above 1000 nM.

Regarding `CC(C)n1c(=O)n(C)c2cnc3[nH]c(-c4cnn(CC(C)(C)O)c4)c(-c4cc5c(s4)CCNC5)c3c21` [Example 82, 7-(1-(2-Hydroxy-2-methylpropyl)-1H-pyrazol-4-yl)-1-isopropyl-3-methyl-8-(4,5,6,7-tetrahydrothieno[3,2-c]pyridin-2-yl)-3,6-dihydroimidazo[4,5-d]pyrrolo[2,3-b]pyridin-2(1H)-one], the IC50 in test [1] was 500 to 1000 nM; in test [2] it was 100 to 500 nM; in test [3], above 1000 nM.

Take `CC(C)n1c(=O)n(C)c2cnc3[nH]c(-c4cnn(CC(C)(C)O)c4)c(-c4cc5c(s4)CCN(S(C)(=O)=O)C5)c3c21` [Example 83, 7-(1-(2-Hydroxy-2-methylpropyl)-1H-pyrazol-4-yl)-1-isopropyl-3-methyl-8-(5-(methylsulfonyl)-4,5,6,7-tetrahydrothieno[3,2-c]pyridin-2-yl)-3,6-dihydroimidazo[4,5-d]pyrrolo[2,3-b]pyridin-2(1H)-one]: the values for the IC50 in test [1], in test [2] and in test [3] were 10 to 100 nM, at most 10 nM and above 1000 nM, respectively.

Consider `Cc1cn2cc(-c3c(-c4cnn(CC(C)(C)O)c4)[nH]c4ncc5c(c34)n(C(C)C)c(=O)n5C)cc2cn1` [Example 84, 7-(1-(2-Hydroxy-2-methylpropyl)-1H-pyrazol-4-yl)-1-isopropyl-3-methyl-8-(3-methylpyrrolo[1,2-a]pyrazin-7-yl)-3,6-dihydroimidazo[4,5-d]pyrrolo[2,3-b]pyridin-2(1H)-one], for which the IC50 in test [1] was at most 10 nM; in test [2] it was at most 10 nM; in test [3], above 1000 nM.

For the compound `CC(C)n1c(=O)n(C)c2cnc3[nH]c(-c4cnn(CC(C)(C)O)c4)c(-c4ccn5cncc5c4)c3c21` [Example 85, 7-(1-(2-Hydroxy-2-methylpropyl)-1H-pyrazol-4-yl)-8-(imidazo[1,5-a]pyridin-7-yl)-1-isopropyl-3-methyl-3,6-dihydroimidazo[4,5-d]pyrrolo[2,3-b]pyridin-2(1H)-one], the IC50 was 10 to 100 nM in test [1], at most 10 nM in test [2] and above 1000 nM in test [3].

On to `CC(C)n1c(=O)n(C)c2cnc3[nH]c(-c4cnn(CC(C)(C)O)c4)c(-c4ccc5c(c4)CCC5O)c3c21` (stereo not drawn) [Example 86, 8-(1-Hydroxy-2,3-dihydro-1H-inden-5-yl)-7-(1-(2-hydroxy-2-methylpropyl)-1H-pyrazol-4-yl)-1-isopropyl-3-methyl-3,6-dihydroimidazo[4,5-d]pyrrolo[2,3-b]pyridin-2(1H)-one], for which the figures for the IC50 in test [1], in test [2] and in test [3] were 10 to 100 nM, at most 10 nM and above 1000 nM, respectively.

Consider `CC(C)n1c(=O)n(C)c2cnc3[nH]c(-c4cnn(CC(C)(C)O)c4)c(-c4ccc(COC5CCOCC5)cc4)c3c21` [Example 87, 7-(1-(2-Hydroxy-2-methylpropyl)-1H-pyrazol-4-yl)-1-isopropyl-3-methyl-8-(4-(((tetrahydro-2H-pyran-4-yl)oxy)methyl)phenyl)-3,6-dihydroimidazo[4,5-d]pyrrolo[2,3-b]pyridin-2(1H)-one], for which the IC50 is at most 10 nM in test [1], at most 10 nM in test [2] and above 1000 nM in test [3].

For `CC(C)n1c(=O)n(C)c2cnc3[nH]c(-c4cnn(CC(C)(C)O)c4)c(C45CCNCC4C5)c3c21` (stereo not drawn) [Example 88, 8-(3-Azabicyclo[4.1.0]heptan-6-yl)-7-(1-(2-hydroxy-2-methylpropyl)-1H-pyrazol-4-yl)-1-isopropyl-3-methyl-3,6-dihydroimidazo[4,5-d]pyrrolo[2,3-b]pyridin-2(1H)-one], the IC50 is 10 to 100 nM in test [1], at most 10 nM in test [2] and above 1000 nM in test [3].

For the compound `CN(C)C(=O)c1ccc(-c2[nH]c3ncc4c(c3c2-c2ccc3c(cnn3C)c2)n(C2CCCC2)c(=O)n4C)cc1` [Example 89, 4-(1-Cyclopentyl-3-methyl-8-(1-methyl-1H-indazol-5-yl)-2-oxo-1,2,3,6-tetrahydroimidazo [4,5-d]pyrrolo[2,3-b]pyridin-7-yl)-N,N-dimethylbenzamide], the IC50 in test [1] is at most 10 nM; in test [2], at most 10 nM; in test [3], 500 to 1000 nM.

`Cn1ncc2cc(-c3c(-c4cnn5cccnc45)[nH]c4ncc5c(c34)n(C3CCOCC3)c(=O)n5C)ccc21` [Example 90, 3-Methyl-8-(1-methyl-1H-indazol-5-yl)-7-(pyrazolo[1,5-a]pyrimidin-3-yl)-1-(tetrahydro-2H-pyran-4-yl)-3,6-dihydroimidazo[4,5-d]pyrrolo[2,3-b]pyridin-2(1H)-one]: the IC50 in test [1] was at most 10 nM; in test [2], at most 10 nM; in test [3], above 1000 nM.
